From patent publication EP3381907A1, “SYMMETRICAL 2-AMINOPHENYL-BENZAZOLYL-5-ACETATE COMPOUNDS AND THEIR USE AS ANTI-HEPARANASE” (Leadiant Biosciences SA, priority 2017, dated 2018)

Test system: HT1080 (human fibrosarcoma)
Assay: Cell adhesion assay on matrigel coated wells, HT1080
Format: cell-based
Conditions: HT1080, test compound at 2.5 µM; percent of adhesion with respect to the control (100%)
Method: Cell surface, non-integrin molecules such as heparan sulfate proteoglycans (HSPGs) may be involved in the regulation of early adhesive stages of cell-ECM interactions. A cell adhesion assay has been employed to determine if the newly designed heparanase inhibitors were able to interfere with adhesion properties of cancer cells.
HT1080 (human fibrosarcoma) and U87MG (human glioblastoma astrocytoma) cells were treated for 18-20 h with test compounds in complete medium supplemented with 10% FCS. Then cells were collected, washed in complete medium, and added to matrigel coated wells in triplicate, at previously identified optimal seeding density, and incubated at 37 °C in complete medium for times ranging from 15 minutes to 4h, according to the cell line. After incubation, the wells were washed three times with serum-free medium and the remaining firmly attached cells were stained with crystal-violet 0.1%. Optical density was measured at 560 nm by Victor 3 (Perkin-Elmer) plate analyzer. Each experiment was repeated three times.
Table 3. […] In Invasion assay, data were expressed as the percent invasion (range) with respect to cell migration through uncoated insert membrane. In Adhesion assay, data were expressed as the percent of adhesion with respect to the control (100%). • Legend • ++: 50-90% • + : < 50% • - : Not Active

SMILES: O=C(O)CNC(=O)Cc1ccc2oc(-c3ccc(NC(=O)Nc4ccc(-c5nc6cc(CC(=O)NCC(=O)O)ccc6o5)cc4F)c(F)c3)nc2c1 [Compound 25, 2,2'-((2,2'-(((Carbonylbis(azanediyl))bis(3-fluoro-4,1-phenylene))bis(benzo[d]oxazole-2,5-diyl))bis(acetyl))bis(azanediyl))diacetic acid]
- Adhesion Assay (%) HT1080: 81.60%

SMILES: O=C(O)Cc1ccc2oc(-c3ccc(NC(=O)Nc4ccc(-c5nc6cc(CC(=O)O)ccc6o5)cc4F)c(F)c3)nc2c1 [Compound 20, 2,2'-(((Carbonylbis(azanediyl))bis(3-fluoro-4,1-phenylene))bis(benzo[d]oxazole-2,5-diyl))diacetic acid]
- Adhesion Assay (%) HT1080: 83.25%
